Experimental data as given in ChEMBL document CHEMBL2074029, “Substrate specificities of rat oatp1 and ntcp: implications for hepatic organic anion uptake” (Am J Physiol Gastrointest Liver Physiol, 2003).
Values belong to the compound of their own block, whether it stands above or below them.

Key:
Format in all cases: functional, cell-based
[1] = target: T1, Solute carrier organic anion transporter family member 1A1 (Rattus norvegicus, UniProt P46720); assay: TP_TRANSPORTER: uptake of Tauromurocholate at 1 u M in Oatp1-expressing HeLa cells; settings: human, 1 µM
T1 sequence (P46720 whole entry): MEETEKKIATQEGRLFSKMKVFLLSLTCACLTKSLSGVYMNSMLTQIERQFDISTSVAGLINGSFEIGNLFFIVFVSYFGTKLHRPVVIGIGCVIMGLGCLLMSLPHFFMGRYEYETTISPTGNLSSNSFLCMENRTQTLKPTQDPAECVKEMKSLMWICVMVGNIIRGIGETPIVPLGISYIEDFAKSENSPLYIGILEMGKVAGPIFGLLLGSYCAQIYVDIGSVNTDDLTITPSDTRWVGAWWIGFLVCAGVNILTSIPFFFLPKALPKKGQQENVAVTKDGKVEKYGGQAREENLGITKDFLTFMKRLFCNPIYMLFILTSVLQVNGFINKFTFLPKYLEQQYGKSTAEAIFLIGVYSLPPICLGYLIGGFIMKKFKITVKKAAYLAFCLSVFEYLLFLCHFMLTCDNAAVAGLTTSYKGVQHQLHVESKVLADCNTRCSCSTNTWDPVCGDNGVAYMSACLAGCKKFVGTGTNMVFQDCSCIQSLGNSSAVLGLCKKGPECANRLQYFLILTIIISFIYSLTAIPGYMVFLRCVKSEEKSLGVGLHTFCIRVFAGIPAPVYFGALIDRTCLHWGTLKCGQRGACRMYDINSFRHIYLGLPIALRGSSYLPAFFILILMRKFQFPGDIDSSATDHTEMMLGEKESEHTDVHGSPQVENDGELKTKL

[2] = target: T2, Hepatic sodium/bile acid cotransporter (Rattus norvegicus, UniProt P26435); assay: TP_TRANSPORTER: uptake of Tauromurocholate at a concentration of 1 u M in NTCP-expressing HeLa cells; settings: human, 1 µM
T2 sequence (P26435 whole entry): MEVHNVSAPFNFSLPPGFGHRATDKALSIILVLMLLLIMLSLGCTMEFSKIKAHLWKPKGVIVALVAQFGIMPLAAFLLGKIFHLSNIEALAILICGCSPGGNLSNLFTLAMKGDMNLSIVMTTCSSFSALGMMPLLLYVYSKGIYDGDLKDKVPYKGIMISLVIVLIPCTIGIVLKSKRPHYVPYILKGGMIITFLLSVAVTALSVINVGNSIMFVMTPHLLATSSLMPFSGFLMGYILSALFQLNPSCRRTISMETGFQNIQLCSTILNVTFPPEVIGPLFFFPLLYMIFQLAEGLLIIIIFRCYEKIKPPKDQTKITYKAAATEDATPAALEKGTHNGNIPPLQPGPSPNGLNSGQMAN

[3] = target: T1, Solute carrier organic anion transporter family member 1A1; assay: TP_TRANSPORTER: uptake of 23-Nor-cholate at 20 u M in Oatp1-expressing HeLa cells; settings: human, 20 µM
[4] = target: T1, Solute carrier organic anion transporter family member 1A1; assay: TP_TRANSPORTER: uptake of Taurotrihydroxycoprostanoic acid at 20 u M in Oatp1-expressing HeLa cells; settings: human, 20 µM
[5] = target: T1, Solute carrier organic anion transporter family member 1A1; assay: TP_TRANSPORTER: uptake of Taurolagodeoxycholate at 1 u M in Oatp1-expressing HeLa cells; settings: human, 1 µM
[6] = target: T2, Hepatic sodium/bile acid cotransporter; assay: TP_TRANSPORTER: uptake of Taurolagodeoxycholate at a concentration of 1 u M in NTCP-expressing HeLa cells; settings: human, 1 µM
[7] = target: T2, Hepatic sodium/bile acid cotransporter; assay: TP_TRANSPORTER: uptake of Hyodeoxycholate at a concentration of 1 u M in NTCP-expressing HeLa cells; settings: human, 1 µM
[8] = target: T1, Solute carrier organic anion transporter family member 1A1; assay: TP_TRANSPORTER: uptake of Deoxycholate at 1 uM in Oatp1-expressing HeLa cells; settings: human
[9] = target: T2, Hepatic sodium/bile acid cotransporter; assay: TP_TRANSPORTER: uptake of Deoxycholate at a concentration of 1 u M in NTCP-expressing HeLa cells; settings: human, 1 µM
[10] = target: T1, Solute carrier organic anion transporter family member 1A1; assay: TP_TRANSPORTER: uptake of Trihydroxycoprostanoic acid at 20 uM in Oatp1-expressing HeLa cells; settings: human
[11] = target: T1, Solute carrier organic anion transporter family member 1A1; assay: TP_TRANSPORTER: uptake of Glycoursodeoxycholate at 20 u M in Oatp1-expressing HeLa cells; settings: human, 20 µM
[12] = target: T1, Solute carrier organic anion transporter family member 1A1; assay: TP_TRANSPORTER: uptake of Taurochenodeoxycholate at 20 u M in Oatp1-expressing HeLa cells; settings: human, 20 µM
[13] = target: T1, Solute carrier organic anion transporter family member 1A1; assay: TP_TRANSPORTER: uptake of Tauro-23-norcholate at 20 u M in Oatp1-expressing HeLa cells; settings: human, 20 µM
[14] = target: T1, Solute carrier organic anion transporter family member 1A1; assay: TP_TRANSPORTER: uptake of Glycocholate at 4 u M in Oatp1-expressing HeLa cells; settings: human, 4 µM
[15] = target: T1, Solute carrier organic anion transporter family member 1A1; assay: TP_TRANSPORTER: uptake of Glycocholate at 20 u M in Oatp1-expressing HeLa cells; settings: human, 20 µM
[16] = target: T2, Hepatic sodium/bile acid cotransporter; assay: TP_TRANSPORTER: uptake of Glycocholate at a concentration of 4 u M in NTCP-expressing HeLa cells; settings: human, 4 µM
[17] = target: T1, Solute carrier organic anion transporter family member 1A1; assay: TP_TRANSPORTER: uptake of Bromosulfophthalein at 1 u M in Oatp1-expressing HeLa cells; settings: human, 1 µM
[18] = target: T1, Solute carrier organic anion transporter family member 1A1; assay: TP_TRANSPORTER: uptake of Tauroursodeoxycholate at 20 u M in Oatp1-expressing HeLa cells; settings: human, 20 µM
[19] = target: T1, Solute carrier organic anion transporter family member 1A1; assay: TP_TRANSPORTER: uptake of Lagodeoxycholate at 1 uM in Oatp1-expressing HeLa cells; settings: human
[20] = target: T2, Hepatic sodium/bile acid cotransporter; assay: TP_TRANSPORTER: uptake of Lagodeoxycholate at a concentration of 1 u M in NTCP-expressing HeLa cells; settings: human, 1 µM
[21] = target: T1, Solute carrier organic anion transporter family member 1A1; assay: TP_TRANSPORTER: uptake of Glyco-23-norcholate at 20 uM in Oatp1-expressing HeLa cells; settings: human
[22] = target: T1, Solute carrier organic anion transporter family member 1A1; assay: TP_TRANSPORTER: uptake of Chenodeoxycholate at 20 uM in Oatp1-expressing HeLa cells; settings: human
[23] = target: T1, Solute carrier organic anion transporter family member 1A1; assay: TP_TRANSPORTER: uptake of Muricholate at 1 u M in Oatp1-expressing HeLa cells; settings: human, 1 µM
[24] = target: T2, Hepatic sodium/bile acid cotransporter; assay: TP_TRANSPORTER: uptake of Muricholate at a concentration of 1 u M in NTCP-expressing HeLa cells; settings: human, 1 µM
[25] = target: T1, Solute carrier organic anion transporter family member 1A1; assay: TP_TRANSPORTER: uptake of Ursodeoxycholate at 20 uM in Oatp1-expressing HeLa cells; settings: human
[26] = target: T1, Solute carrier organic anion transporter family member 1A1; assay: TP_TRANSPORTER: uptake of Glycotrihydroxycoprostanoic acid at 20 u M in Oatp1-expressing HeLa cells; settings: human, 20 µM
[27] = target: T1, Solute carrier organic anion transporter family member 1A1; assay: TP_TRANSPORTER: uptake of Glycochenodeoxycholate at 20 uM in Oatp1-expressing HeLa cells; settings: human

Structure (SMILES): C[C@H](CCC(=O)NCCS(=O)(=O)O)[C@H]1CC[C@H]2[C@@H]3C[C@@H](O)[C@@H]4C[C@H](O)CC[C@]4(C)[C@H]3CC[C@]12C [TAUROMUROCHOLATE]
Activity [1]: substrate [+] | Activity [2]: substrate [+]

Structure (SMILES): C[C@H](CC(=O)O)[C@H]1CC[C@H]2[C@@H]3[C@H](O)C[C@@H]4C[C@H](O)CC[C@]4(C)[C@H]3C[C@H](O)[C@]12C
Activity [3]: substrate [+]

Structure (SMILES): CC(CCC[C@@H](C)C1CC[C@H]2[C@@H]3[C@H](O)C[C@]4(C(=O)O)C[C@H](O)CC[C@]4(C)[C@H]3C[C@H](O)[C@]12C)C(=O)NCCS(=O)(=O)O (some centres not stated) [TAUROTRIHYDROXYCOPROSTANOIC ACID]
Activity [4]: substrate [+]

Structure (SMILES): C[C@H](CCC(=O)O)[C@H]1CC[C@H]2[C@@H]3C[C@H](O)[C@@H]4C[C@H](O)CC[C@]4(C)[C@H]3CC[C@]12C [HYODEOXYCHOLIC_ACID]
Activity [7]: is not a substrate [-]

Structure (SMILES): C[C@H](CCC(=O)NCC(=O)O)[C@H]1CC[C@H]2[C@@H]3[C@@H](O)C[C@@H]4C[C@H](O)CC[C@]4(C)[C@H]3CC[C@]12C [GLYCOURSODEOXYCHOLIC ACID]
Activity [11]: substrate [+]

Structure (SMILES): O=C1OC(c2ccc(O)c(S(=O)(=O)[O-])c2)(c2ccc(O)c(S(=O)(=O)[O-])c2)c2c(Br)c(Br)c(Br)c(Br)c21.[Na+].[Na+] [SULFOBROMOPHTHALEIN SODIUM]
Activity [17]: substrate [+]

Structure (SMILES): C[C@H](CCC(=O)O)[C@H]1CC[C@H]2[C@@H]3[C@H](O)C[C@@H]4C[C@H](O)CC[C@]4(C)[C@H]3CC[C@]12C [CHENODIOL]
Activity [22]: is not a substrate [-]

Structure (SMILES): C[C@H](CCC(=O)O)C1CC[C@H]2[C@@H]3C(O)C(O)C4C[C@H](O)CC[C@]4(C)[C@H]3CC[C@]12C (some centres not stated) [MURICHOLATE]
Activity [23]: substrate [+] | Activity [24]: substrate [+]

Structure (SMILES): C[C@H](CCC(=O)O)[C@H]1CC[C@H]2[C@@H]3[C@@H](O)C[C@@H]4C[C@H](O)CC[C@]4(C)[C@H]3CC[C@]12C [URSODIOL]
Activity [25]: is not a substrate [-]

Structure (SMILES): C[C@H](CCC(=O)NCC(=O)O)[C@H]1CC[C@H]2[C@@H]3[C@H](O)C[C@@H]4C[C@H](O)CC[C@]4(C)[C@H]3CC[C@]12C [GLYCOCHENODEOXYCHOLATE]
Activity [27]: is not a substrate [-]

The remaining lines, values ahead:

Activity [5]: substrate [+] | Activity [6]: substrate [+]
Structure (SMILES): C[C@H](CCC(=O)NCCS(=O)(=O)O)[C@H]1CC[C@H]2[C@@H]3CC[C@H]4C[C@H](O)CC[C@]4(C)[C@H]3C[C@@H](O)[C@]12C [TAUROLAGODEOXYCHOLATE]

Activity [8]: is not a substrate [-] | Activity [9]: is not a substrate [-]
Structure (SMILES): C[C@H](CCC(=O)O)[C@H]1CC[C@H]2[C@@H]3CC[C@@H]4C[C@H](O)CC[C@]4(C)[C@H]3C[C@H](O)[C@]12C [DEOXYCHOLIC ACID]

Activity [10]: is not a substrate [-]
Structure (SMILES): CC(C)CCC[C@@H](C)C1CC[C@H]2[C@@H]3[C@H](O)C[C@]4(C(=O)O)C[C@H](O)CC[C@]4(C)[C@H]3C[C@H](O)[C@]12C (some centres not stated) [TRIHYDROXYCOPROSTANOIC ACID]

Activity [12]: substrate [+]
Structure (SMILES): C[C@H](CCC(=O)NCCS(=O)(=O)O)[C@H]1CC[C@H]2[C@@H]3[C@H](O)C[C@@H]4C[C@H](O)CC[C@]4(C)[C@H]3CC[C@]12C [TAUROCHENODEOXYCHOLATE]

Activity [13]: substrate [+]
Structure (SMILES): C[C@H](CC(=O)NCCS(=O)(=O)O)[C@H]1CC[C@H]2[C@@H]3[C@H](O)C[C@@H]4C[C@H](O)CC[C@]4(C)[C@H]3C[C@H](O)[C@]12C

Activity [14]: substrate [+] | Activity [15]: substrate [+] | Activity [16]: substrate [+]
Structure (SMILES): C[C@H](CCC(=O)NCC(=O)O)[C@H]1CC[C@H]2[C@@H]3[C@H](O)C[C@@H]4C[C@H](O)CC[C@]4(C)[C@H]3C[C@H](O)[C@]12C [GLYCOCHOLIC ACID]

Activity [18]: substrate [+]
Structure (SMILES): C[C@H](CCC(=O)NCCS(=O)(=O)O)[C@H]1CC[C@H]2[C@@H]3[C@@H](O)C[C@@H]4C[C@H](O)CC[C@]4(C)[C@H]3CC[C@]12C [TAURURSODIOL]

Activity [19]: is not a substrate [-] | Activity [20]: is not a substrate [-]
Structure (SMILES): C[C@H](CCC(=O)O)[C@H]1CC[C@H]2[C@@H]3CC[C@@H]4C[C@H](O)CC[C@]4(C)[C@H]3C[C@@H](O)[C@]12C [LAGODEOXYCHOLATE]

Activity [21]: is not a substrate [-]
Structure (SMILES): C[C@H](CC(=O)NCC(=O)O)[C@H]1CC[C@H]2[C@@H]3[C@H](O)C[C@@H]4C[C@H](O)CC[C@]4(C)[C@H]3C[C@H](O)[C@]12C

Activity [26]: substrate [+]
Structure (SMILES): CC(CC(=O)NCC(=O)O)[C@H]1CC[C@@H]2C1[C@@H](O)C[C@@H]1C3CC[C@@H](O)CC3C[C@@H](O)[C@H]12 (some centres not stated) [GLYCOTRIHYDROXYCOPROSTANOIC ACID]
